# System: 276233-004-R-J1-PDC complex spheroid viability
# Assay: Anticancer human tumor 276233-004-R-J1-PDC patient-derived colon adenocarcinoma cell line growth inhibition [GQUAD]
# Conditions: for IC50: curve of first compound; for viability, T/C: stronger effect = lower value
# Text: DNA G-quadruplex Stabilizer Agents in Combinations in Complex Spheroids
# A high-throughput screen of multi-cell type tumor spheroids was designed to identify active combinations of DNA G-quadruplex stabilizer agents and targeted small molecules. Complex spheroids include a stromal component modeled by human endothelial cells (HUVEC) and fibroblasts modeled by human mesenchymal stem cells (MSCs). The concentration ranges selected for each drug and investigational agent were based upon clinically achievable concentrations if the clinical Cmax of the agent was known.
# Compounds. The drugs and investigational agents: pidnarulex (CX-5461; NSC782164), APTO-253 (NSC789042), BRACO-19 (NSC847499), peposertib (NSC802822), ceralasertib (NSC780249), elimusertib (NSC800525), camonsertib (NSC841442), AZD-1390 (NSC803789), olaparib (NSC753686), talazoparib (NSC767125), ART-558 (NSC835418), sotorasib (NSC818433), MRTX-1133 (NSC836407), SN-38 (NSC673596), topotecan (NSC609699), etoposide (NSC141540), doxorubicin (NSC123127), gemcitabine (NSC613327), 5-fluorouracil (NSC19893), paclitaxel (NSC125973), vemurafenib (NSC761431), panobinostat (NSC761190), R-306465 (JNJ-16241199; NSC773264), adavosertib (NSC754352), TP-3654 (NSC805149), carboplatin (NSC241240), KSQ-4279 (NSC840948), and staurosporine (NSC755774) were obtained from the National Cancer Institute (NCI) Developmental Therapeutics Program Chemical Repository (34). The FDA-approved anticancer drug set is available from the NCI Developmental Therapeutics Program. […] The stock solutions were prepared in dimethyl sulfoxide (DMSO, Sigma-Aldrich, St. Louis, MO, cat. D2650) at 800-fold the tested concentration and stored at -70 degrees C prior to their use. All drugs and investigational agents were tested over a range starting from a high concentration at or near the clinical Cmax and decreasing in half-log increments. If the clinical Cmax for an agent had not been determined, the highest concentration tested was 10 microM.
# 2.3 Cell Culture. All cells were maintained in an incubator at 37 degrees C and 5% CO2 with 95% humidity. The PDC lines were cultured according to standard operating procedures established by the NCI PDMR. All PDCs were thawed and cultured in Matrigel-coated flasks prepared with a working solution of 1X Ham's F-12 nutrient mix, without supplementation (Invitrogen, cat. 11765054), 100 U/mL penicillin-streptomycin (Invitrogen, cat. 15140122), and 2.5% Matrigel (Corning Inc., cat. 354248) for the first three passages. The 857933-349-R-J2-PDC line was cultured in 6C/Colon 1B media, which includes advanced DMEM/F-12 (Thermo Fisher Scientific, cat. 12634028), 10 mM HEPES (Thermo Fisher Scientific, cat. 15630080), 1X GlutaMAX supplement (Thermo Fisher Scientific, cat. 35050061), 0.1 mg/mL primocin (InvivoGen, cat. ant-pm-2), 10% defined fetal bovine serum, heat inactivated (HyClone Laboratories Inc., cat. SH30070.03HI), 50% L-WRN conditioned media (ATCC, cat. CRL-3276), 1.25 mM N-Acetyl-L-cysteine (Sigma-Aldrich, cat. A9165), 10 mM nicotinamide (Sigma-Aldrich, cat. N0636), 1X B-27 supplement (Thermo Fisher Scientific, cat. 17504044), 1X N-2 supplement (Thermo Fisher Scientific, cat. 17502048), 10 microM Y-27632 dihydrochloride (Tocris Bioscience, cat. 1254), and 50 ng/mL human EGF recombinant protein (Thermo Fisher Scientific, cat. PHG0311). The 485176-168-R4-J1-PDC line was cultured in Panc media, which includes all 6C/Colon 1B media components plus 100 ng/mL human FGF-10 (Thermo Fisher Scientific, cat. 100-26), 500 nM SB-431542 (Selleckchem, cat. S1067), and gastrin (Tocris, cat. 3006).
# […]
# 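Also: spheroids exposed to drugs for seven days.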
# 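For viability, T/C in this document: 100% = DMSO vehicle control viability.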
smiles,measurement,setting,value
O=c1[nH]cc(F)c(=O)[nH]1 + CN(C)c1ccc(Nc2c3ccc(NC(=O)CCN4CCCC4)cc3nc3cc(NC(=O)CCN4CCCC4)ccc23)cc1,IC50,second compound 0.0316 µM,> 10 µM
same,IC50,second compound 0.1 µM,> 10 µM
same,IC50,second compound 0.316 µM,> 10 µM
same,IC50,second compound 1 µM,> 10 µM
same,IC50,second compound 3.16 µM,> 10 µM
same,IC50,second compound 10 µM,> 10 µM
same,"viability, T/C","second compound 0.0316 µM, first compound 0.0316 µM",93.7%
same,"viability, T/C","second compound 0.0316 µM, first compound 0.1 µM",83.7%
same,"viability, T/C","second compound 0.0316 µM, first compound 0.316 µM",108%
same,"viability, T/C","second compound 0.0316 µM, first compound 1 µM",108%
same,"viability, T/C","second compound 0.0316 µM, first compound 3.16 µM",90.2%
same,"viability, T/C","second compound 0.0316 µM, first compound 10 µM",103%
same,"viability, T/C","second compound 0.1 µM, first compound 0.0316 µM",92%
same,"viability, T/C","second compound 0.1 µM, first compound 0.1 µM",76.5%
same,"viability, T/C","second compound 0.1 µM, first compound 0.316 µM",80.5%
same,"viability, T/C","second compound 0.1 µM, first compound 1 µM",88.5%
same,"viability, T/C","second compound 0.1 µM, first compound 3.16 µM",75.1%
same,"viability, T/C","second compound 0.1 µM, first compound 10 µM",103%
same,"viability, T/C","second compound 0.316 µM, first compound 0.0316 µM",69.1%
same,"viability, T/C","second compound 0.316 µM, first compound 0.1 µM",62.3%
same,"viability, T/C","second compound 0.316 µM, first compound 0.316 µM",60.1%
same,"viability, T/C","second compound 0.316 µM, first compound 1 µM",61%
same,"viability, T/C","second compound 0.316 µM, first compound 3.16 µM",72.2%
same,"viability, T/C","second compound 0.316 µM, first compound 10 µM",61.8%
same,"viability, T/C","second compound 1 µM, first compound 0.0316 µM",66.8%
same,"viability, T/C","second compound 1 µM, first compound 0.1 µM",62.9%
same,"viability, T/C","second compound 1 µM, first compound 0.316 µM",63.7%
same,"viability, T/C","second compound 1 µM, first compound 1 µM",66.2%
same,"viability, T/C","second compound 1 µM, first compound 3.16 µM",52.2%
same,"viability, T/C","second compound 1 µM, first compound 10 µM",59.3%
same,"viability, T/C","second compound 3.16 µM, first compound 0.0316 µM",59.3%
same,"viability, T/C","second compound 3.16 µM, first compound 0.1 µM",58.5%
same,"viability, T/C","second compound 3.16 µM, first compound 0.316 µM",54.9%
same,"viability, T/C","second compound 3.16 µM, first compound 1 µM",57.9%
same,"viability, T/C","second compound 3.16 µM, first compound 3.16 µM",69.8%
same,"viability, T/C","second compound 3.16 µM, first compound 10 µM",62.4%
same,"viability, T/C","second compound 10 µM, first compound 0.0316 µM",49.8%
same,"viability, T/C","second compound 10 µM, first compound 0.1 µM",54.9%
same,"viability, T/C","second compound 10 µM, first compound 0.316 µM",51.5%
same,"viability, T/C","second compound 10 µM, first compound 1 µM",46.1%
same,"viability, T/C","second compound 10 µM, first compound 3.16 µM",51.3%
same,"viability, T/C","second compound 10 µM, first compound 10 µM",59.1%

# Source: PubChem BioAssay AID2060496 (Molecular Pharmacology Branch, DTP, NCI, 2025)
